The record followed here is US10294234B2, “HIV inhibitor compounds” (priority 2017, dated 2019).

Where two headings read alike, the source gives them in different places. Some results are limits rather than exact numbers.

The method of data set [1] in brief:
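Depletion measured by LC/MS/MS at 2, 12, 25, 45 and 65 minutes after 1 uM compound was added to liver microsomes (0.5 mg/mL; dog, rat, human) with NADPH-regenerating cofactor, in duplicate. In vitro t1/2 converted to Clint.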

The subject of data set [2] is HIV-1 (IIIB) in MT-4 cells. Kind of data set: MT-4 HIV assay. Format: cell-based. The conditions noted are these: Human immunodeficiency virus 1, MT4, 120 h. The essentials: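 Antiviral activity was read by Cell Titer Glo after a 5-day, 37 °C culture of MT-4 cells pre-infected with a 1:250 dilution of HIV-1 (IIIB). Compounds were tested as threefold dilution series in complete RPMI. Controls were no drug, mock infection and 5 uM AZT.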

Where [3] appears, read: human liver microsomes 0.5 mg/mL, 1 uM compound, NADPH.
[4] abbreviates: rat liver microsomes 0.5 mg/mL, 1 uM compound, NADPH.
Setting [5] is: HIV-1 (IIIB), MT-4 cells, 5 days, Cell Titer Glo, read-out: EC50.

The EC50 is the concentration needed to bring the measured effect to its halfway point. Regarding `COC(=O)N[C@H](C(=O)N[C@@H](Cc1ccc(C#Cc2ccc(N3CC4CC(CN(C(C)=O)C4)C3)nc2)cc1)[C@@H](O)CN(Cc1c(F)cc(-c2cnn(C(F)F)c2)cc1F)NC(=O)[C@@H](NC(=O)OC)C(C)(C)C(F)(F)F)C(C)(C)C(F)(F)F` [Example 67, Methyl ((5S,8S,9S,14S)-8-(4-((6-(7-acetyl-3,7-diazabicyclo[3.3.1]nonan-3-yl)pyridin-3-yl)ethynyl)benzyl)-1-(4-(1-(difluoromethyl)-1H-pyrazol-4-yl)-2,6-difluorobenzyl)-16,16,16-trifluoro-9-hydroxy-15,15-dimethyl-3,6,13-trioxo-5-(1,1,1-trifluoro-2-methylpropan-2-yl)-2-oxa-4,7,11,12-tetraazahexadecan-14-yl)carbamate], the “Human Pred Cl.” value in data set [1] (setting [3]) is 0.41 L/H/kg. The “Rat. Pred. Cl.” value in data set [1] (setting [4]) came to 1.43 L/H/kg. For the same compound, the EC50 in data set [2] (setting [5]) was determined as 6.25 nM.

On to `COC(=O)N[C@H](C(=O)N[C@@H](Cc1ccc(C#Cc2ccc(N3CC4CCC(C3)O4)nc2)cc1)[C@@H](O)CN(Cc1c(F)cc(-c2cnn(C(F)F)c2)cc1F)NC(=O)[C@@H](NC(=O)OC)C(C)(C)C(F)(F)F)C(C)(C)C(F)(F)F` [Example 68, Methyl ((5S,8S,9S,14S)-8-(4-((6-(8-oxa-3-azabicyclo[3.2.1]octan-3-yl)pyridin-3-yl)ethynyl)benzyl)-11-(4-(1-(difluoromethyl)-1H-pyrazol-4-yl)-2,6-difluorobenzyl)-16,16,16-trifluoro-9-hydroxy-15,15-dimethyl-3,6,13-trioxo-5-(1,1,1-trifluoro-2-methylpropan-2-yl)-2-oxa-4,7,11,12-tetraazahexadecan-14-yl)carbamate], for which the “Human Pred Cl.” value in data set [1] (setting [3]) was under 0.11 L/H/kg. Besides, the “Rat. Pred. Cl.” value in data set [1] (setting [4]) was 0.61 L/H/kg. Moreover, the EC50 in data set [2] (setting [5]) is 7.25 nM.

For the compound `COC(=O)N[C@H](C(=O)N[C@@H](Cc1ccc(C#Cc2ccc(-c3cn4c(n3)CN(C)C(=O)C4)cc2)cc1)[C@@H](O)CN(Cc1c(F)cc(-c2cnn(C(F)F)c2)cc1F)NC(=O)[C@@H](NC(=O)OC)C(C)(C)C(F)(F)F)C(C)(C)C(F)(F)F` [Example 69, Methyl ((5S,8S,9S,14S)-11-(4-(1-(difluoromethyl)-1H-pyrazol-4-yl)-2,6-difluorobenzyl)-16,16,16-trifluoro-9-hydroxy-15,15-dimethyl-8-(4-((4-(7-methyl-6-oxo-5,6,7,8-tetrahydroimidazo[1,2-a]pyrazin-2-yl)phenyl)ethynyl)benzyl)-3,6,13-trioxo-5-(1,1,1-trifluoro-2-methylpropan-2-yl)-2-oxa-4,7,11,12-tetraazahexadecan-14-yl)carbamate], the “Human Pred Cl.” value in data set [1] (setting [3]) is under 0.11 L/H/kg. Further, in data set [1] (setting [4]), the “Rat. Pred. Cl.” value is under 0.18 L/H/kg. For the same compound, the EC50 in data set [2] (setting [5]) was found to be 3.24 nM.

Consider `COC(=O)N[C@H](C(=O)N[C@@H](Cc1ccc(C#Cc2ccc(N3CC4CCC(C3)N4S(C)(=O)=O)nc2)cc1)[C@@H](O)CN(Cc1c(F)cc(-c2cnn(C(F)F)c2)cc1F)NC(=O)[C@@H](NC(=O)OC)C(C)(C)C(F)(F)F)C(C)(C)C(F)(F)F` [Example 70, Methyl ((5S,8S,9S,14S)-11-(4-(1-(difluoromethyl)-1H-pyrazol-4-yl)-2,6-difluorobenzyl)-16,16,16-trifluoro-9-hydroxy-15,15-dimethyl-8-(4-((6-(8-(methylsulfonyl)-3,8-diazabicyclo[3.2.1]octan-3-yl)pyridin-3-yl)ethynyl)benzyl)-3,6,13-trioxo-5-(1,1,1-trifluoro-2-methylpropan-2-yl)-2-oxa-4,7,11,12-tetraazahexadecan-14-yl)carbamate], for which the “Human Pred Cl.” value in data set [1] (human, microsomes) is reported as under 0.11 L/H/kg. In addition, in data set [1] (rat, microsomes), the “Rat. Pred. Cl.” value is under 0.18 L/H/kg. Also, the EC50 in data set [2] (setting [5]) was found to be 4.79 nM.

For `COC(=O)N[C@H](C(=O)NN(Cc1c(F)cc(-c2ccn(C(F)F)n2)cc1F)C[C@H](O)[C@H](Cc1ccc(C#Cc2ccc(N3CC4CCC(C3)N4S(C)(=O)=O)nc2)cc1)NC(=O)[C@@H](NC(=O)OC)C(C)(C)C(F)(F)F)C(C)(C)C` [Example 72, Methyl ((5S,8S,9S,14S)-11-(4-(1-(difluoromethyl)-1H-pyrazol-3-yl)-2,6-difluorobenzyl)-9-hydroxy-15,15-dimethyl-8-(4-((6-(8-(methylsulfonyl)-3,8-diazabicyclo[3.2.1]octan-3-yl)pyridin-3-yl)ethynyl)benzyl)-3,6,13-trioxo-5-(1,1,1-trifluoro-2-methylpropan-2-yl)-2-oxa-4,7,11,12-tetraazahexadecan-14-yl)carbamate], in data set [1] (human, microsomes), the “Human Pred Cl.” value was 0.14 L/H/kg. Further, the “Rat. Pred. Cl.” value in data set [1] (rat, microsomes) is on record as under 0.18 L/H/kg. Also, the EC50 in data set [2] (setting [5]) is 5.19 nM.

Take `COC(=O)N[C@H](C(=O)NN(Cc1c(F)cc(-c2cn(C(F)F)cn2)cc1F)C[C@H](O)[C@H](Cc1ccc(C#Cc2ccc(N3CC4CCC(C3)N4C3COC3)nc2)cc1)NC(=O)[C@@H](NC(=O)OC)C(C)(C)C(F)(F)F)C(C)(C)C` [Example 77, Methyl ((5S,8S,9S,14S)-11-(4-(1-(difluoromethyl)-1H-imidazol-4-yl)-2,6-difluorobenzyl)-9-hydroxy-15,15-dimethyl-8-(4-((6-(8-(oxetan-3-yl)-3,8-diazabicyclo [3.2.1]octan-3-yl)pyridin-3-yl)ethynyl)benzyl)-3,6,13-trioxo-5-(1,1,1-trifluoro-2-methylpropan-2-yl)-2-oxa-4,7,11,12-tetraazahexadecan-14-yl)carbamate]: the “Human Pred Cl.” value in data set [1] (human, microsomes) is recorded as under 0.11 L/H/kg. For the same compound, the “Rat. Pred. Cl.” value in data set [1] (rat, microsomes) came to 0.25 L/H/kg. The EC50 in data set [2] (setting [5]) was determined as 2.49 nM.

For the compound `COC(=O)N[C@H](C(=O)N[C@@H](Cc1ccc(C#Cc2ccc(N3CC4CCC(C3)N4C3COC3)nc2C)cc1)[C@@H](O)CN(Cc1c(F)cc(-c2ccccn2)cc1F)NC(=O)[C@@H](NC(=O)OC)C(C)(C)C(F)(F)F)C(C)(C)C(F)(F)F` [Example 78, Methyl ((5S,8S,9S,14S)-11-(2,6-difluoro-4-(pyridin-2-yl)benzyl)-16,16,16-trifluoro-9-hydroxy-15,15-dimethyl-8-(4-((2-methyl-6-(8-(oxetan-3-yl)-3,8-diazabicyclo[3.2.1]octan-3-yl)pyridin-3-yl)ethynyl)benzyl)-3,6,13-trioxo-5-(1,1,1-trifluoro-2-methylpropan-2-yl)-2-oxa-4,7,11,12-tetraazahexadecan-14-yl)carbamate], in data set [1] (human, microsomes), the “Human Pred Cl.” value is under 0.11 L/H/kg. Moreover, the “Rat. Pred. Cl.” value in data set [1] (rat, microsomes) is under 0.18 L/H/kg. Besides, in data set [2] (setting [5]), the EC50 is 6.27 nM.

Regarding `COC(=O)N[C@H](C(=O)N[C@@H](Cc1ccc(C#Cc2ccc(N3CCN(C)C(=O)C3)nc2)cc1)[C@@H](O)CN(Cc1c(F)cc(-c2ccn(C(F)F)n2)cc1F)NC(=O)[C@@H](NC(=O)OC)C(C)(C)C(F)(F)F)C(C)(C)C(F)(F)F` [Example 81, Methyl ((5S,8S,9S,14S)-11-(4-(1-(difluoromethyl)-1H-pyrazol-3-yl)-2,6-difluorobenzyl)-16,16,16-trifluoro-9-hydroxy-15,15-dimethyl-8-(4-((6-(4-methyl-3-oxopiperazin-1-yl)pyridin-3-yl)ethynyl)benzyl)-3,6,13-trioxo-5-(1,1,1-trifluoro-2-methylpropan-2-yl)-2-oxa-4,7,11,12-tetraazahexadecan-14-yl)carbamate], the “Human Pred Cl.” value in data set [1] (setting [3]) is recorded as under 0.11 L/H/kg. Moreover, the “Rat. Pred. Cl.” value in data set [1] (setting [4]) is recorded as 0.39 L/H/kg. Moreover, the EC50 in data set [2] was 4.39 nM.
